From ChEMBL document CHEMBL6087402, “Design, synthesis, and in vitro and in vivo biological evaluation of dihydroartemisinin derivatives as potent anti-cancer agents with ferroptosis-inducing and apoptosis-activating properties” (Eur J Med Chem, 2025)
The source made the active and inactive calls. The calls are words filed in the database; no cut-off is given here.

Key:
HCT-116 [1] = assay: Inhibition of cell proliferation in human HCT-116 cells incubated for 12 hrs by EdU assay; format: functional, cell-based; settings: dose <= 3.0 µM
HCT-116 [2] = assay: Induction of apoptosis in human HCT-116 cells assessed as early apoptotic cells at 0.3 uM incubated for 72 hrs by Annexin V-FITC/PI staining based flow cytometry (reference value: 1.55 %); format: functional
HCT-116 [3] = assay: Antitumor activity against human HCT-116 cells xenografted in mouse assessed as reduction in cellular atypia at 50 mg/kg, ip administered once in every 2 days for 21 days by H and E staining based analysis; format: functional, organism-based; settings: time 21.0 day
HCT-116 [4] = assay: Induction of apoptosis in human HCT-116 cells assessed as viable cells at 0.03 uM incubated for 72 hrs by Annexin V-FITC/PI staining based flow cytometry (reference value: 97.1 %); format: functional; settings: read-out: Activity
[5] = Toxicity in BALB/c mouse assessed as animal death at 100 mg/kg, ip administered continuously for 7 days; format: organism-based; settings: in vivo, 168 h, time 7 day
HCT-116 [6] = assay: Induction of apoptosis in human HCT-116 cells assessed as viable cells at 0.3 uM incubated for 72 hrs by Annexin V-FITC/PI staining based flow cytometry (reference value: 97.1 %); format: functional; settings: read-out: Activity
HCT-116 [7] = assay: Inhibition of colony formation in human HCT-116 cells incubated for 7 to 12 days by crystal violet staining based analysis; format: functional, cell-based; settings: dose <= 3.0 µM, time 7-12 day
HCT-116 [8] = assay: Induction of ferroptosis in human HCT-116 cells assessed as reduction in GPX4 level upto 3 uM incubated for 72 hrs by Western blot analysis; format: functional, cell-based
[9] = Toxicity in BALB/c mouse assessed as lethal dose administered intraperitoneally continuously for 7 days; settings: in vivo, route ip, time 7 day
HCT-116 [10] = assay: Induction of lipid peroxidation in human HCT-116 cells upto 3 uM incubated for 24 hrs by confocal fluorescence microscopy; format: functional, cell-based
HCT-116 [11] = assay: Induction of apoptosis in human HCT-116 cells assessed as early apoptotic cells at 0.03 uM incubated for 72 hrs by Annexin V-FITC/PI staining based flow cytometry (reference value: 1.55 %); format: functional
[12] = Toxicity in BALB/c mouse assessed as apparent damage in heart at 100 mg/kg, ip administered continuously for 7 days by H and E staining based analysis; format: organism-based; settings: in vivo, 168 h, time 7 day
[13] = Toxicity in BALB/c mouse assessed as apparent damage in lungs at 100 mg/kg, ip administered continuously for 7 days by H and E staining based analysis; format: organism-based; settings: in vivo, 168 h, time 7 day
HCT-116 [14] = assay: Inhibition of colony formation in human HCT-116 cells at 3 uM incubated for 7 to 12 days by crystal violet staining based analysis relative to control; format: functional; settings: time 7-12 day
HCT-116 [15] = assay: Antitumor activity against human HCT-116 cells xenografted in mouse assessed as reduction in tumor cell mitotic figures at 50 mg/kg, ip administered once in every 2 days for 21 days by H and E staining based analysis; format: functional, organism-based; settings: time 21.0 day
[16] = Anti-proliferative activity against human L02 cells incubated for 72 hrs by MTT assay; format: toxicity, cell-based
HCT-116 [17] = assay: Induction of ferroptosis in human HCT-116 cells incubated for 72 hrs in presence of Fer-1 by MTT assay; format: functional, cell-based
HCT-116 [18] = assay: Induction of cell cycle arrest in human HCT-116 cells assessed as accumulation at S phase at 0.03 uM incubated for 72 hrs by PI staining based flow cytometry (reference value: 23.49 %); format: functional
HCT-116 [19] = assay: Induction of apoptosis in human HCT-116 cells assessed as increase in Bax level upto 3 uM incubated for 72 hrs by Western blot analysis; format: functional, cell-based
HCT-116 [20] = assay: Induction of apoptosis in human HCT-116 cells assessed as necrotic cells at 3 uM incubated for 72 hrs by Annexin V-FITC/PI staining based flow cytometry (reference value: 0.33 %); format: functional
HCT-116 [21] = assay: Induction of apoptosis in human HCT-116 cells assessed as early apoptotic cells at 3 uM incubated for 72 hrs by Annexin V-FITC/PI staining based flow cytometry (reference value: 1.55 %); format: functional
[22] = Toxicity in BALB/c mouse assessed as change fur luster at 100 mg/kg, ip administered continuously for 7 days; format: organism-based; settings: in vivo, 168 h, time 7 day
[23] = Toxicity in BALB/c mouse assessed as apparent damage in spleen at 100 mg/kg, ip administered continuously for 7 days by H and E staining based analysis; format: organism-based; settings: in vivo, 168 h, time 7 day
HCT-116 [24] = assay: Induction of apoptosis in human HCT-116 cells assessed as decrease in Bcl-2 level upto 3 uM incubated for 72 hrs by Western blot analysis; format: functional, cell-based
HCT-116 [25] = assay: Induction of cell cycle arrest in human HCT-116 cells assessed as accumulation at S phase at 3 uM incubated for 72 hrs by PI staining based flow cytometry (reference value: 23.49 %); format: functional
HCT-116 [26] = assay: Induction of mitochondrial membrane potential loss in human HCT-116 cells assessed as increase in green fluorescence incubated upto 3 uM by JC-1 dye based analysis; format: functional, cell-based
HCT-116 [27] = assay: Anti-proliferative activity against human HCT-116 cells incubated for 72 hrs by MTT assay; format: functional, cell-based; settings: HCT-116, 72 h
HCT-116 [28] = assay: Induction of cell cycle arrest in human HCT-116 cells assessed as accumulation at S phase at 0.3 uM incubated for 72 hrs by PI staining based flow cytometry (reference value: 23.49 %); format: functional
HCT-116 [29] = assay: Anti-proliferative activity against human HCT-116 cells assessed as inhibition of STAT3 phosphorylation upto 3 uM incubated for 72 hrs by Western blot analysis; format: functional, cell-based
HCT-116 [30] = assay: Inhibition of cell proliferation in human HCT-116 cells at 3 uM incubated for 12 hrs by EdU assay (reference value: 48.14 %); format: functional
HCT-116 [31] = assay: Induction of apoptosis in human HCT-116 cells assessed as necrotic cells at 0.03 uM incubated for 72 hrs by Annexin V-FITC/PI staining based flow cytometry (reference value: 0.33 %); format: functional
A549 = assay: Anti-proliferative activity against human A549 cells incubated for 72 hrs by MTT assay; format: functional, cell-based; settings: A549, 72 h
[32] = Selectivity index, ratio of IC50 for human L02 cells to IC50 for human HCT-116 cells; format: toxicity; settings: L02 cells versus HCT-116 cells, read-out: Ratio IC50
HCT-116 [33] = assay: Induction of cell cycle arrest in human HCT-116 cells assessed as accumulation at G2/M phase at 3 uM incubated for 72 hrs by PI staining based flow cytometry (reference value: 15.79 %); format: functional
[34] = Toxicity in BALB/c mouse assessed as difficulty in breathing at 100 mg/kg, ip administered continuously for 7 days; format: organism-based; settings: in vivo, 168 h, time 7 day
HCT-116 [35] = assay: Induction of intracellular ROS level in human HCT-116 cells upto 3 uM incubated for 24 hrs by DCFH-DA dye based analysis; format: functional, cell-based
HCT-116 [36] = assay: Induction of apoptosis in human HCT-116 cells assessed as necrotic cells at 0.3 uM incubated for 72 hrs by Annexin V-FITC/PI staining based flow cytometry (reference value: 0.33 %); format: functional
[37] = Toxicity in BALB/c mouse assessed as loss of appetite at 100 mg/kg, ip administered continuously for 7 days; format: organism-based; settings: in vivo, 168 h, time 7 day
HCT-116 [38] = assay: Induction of apoptosis in human HCT-116 cells assessed as increase in cleaved caspase-3 level upto 3 uM incubated for 72 hrs by Western blot analysis; format: functional, cell-based

SMILES: C[C@@H]1CC[C@H]2[C@@H](C)C(OC(=O)Nc3ccc(Cl)cc3)O[C@@H]3O[C@@]4(C)CC[C@H]1[C@]32OO4 (some centres undefined)
- inhibition (HCT-116 [1]): Dose-dependent-effect
- Activity (HCT-116 [2]): 9.8%
- Activity (HCT-116 [3]): Active
- viability at 0.03 µM (HCT-116 [4]): 93.3%
- Activity [5]: Non-toxic
- viability at 0.3 µM (HCT-116 [6]): 81.9%
- inhibition (HCT-116 [7]): Dose-dependent-effect
- Activity (HCT-116 [8]): Active
- LD50 at 168 h [9]: > 100 mg/kg
- Activity (HCT-116 [10]): Active
- Activity (HCT-116 [11]): 4.11%
- Activity [12]: Non-toxic
- Activity [13]: Non-toxic
- inhibition at 3 µM (HCT-116 [14]): 62.1%
- Activity (HCT-116 [15]): Active
- IC50 at 72 h [16]: 16800 nM
- Activity (HCT-116 [17]): inactive
- Activity (HCT-116 [18]): 25.54%
- Activity (HCT-116 [19]): Active
- Activity (HCT-116 [20]): 0.026%
- Activity (HCT-116 [21]): 17%
- Activity [22]: Non-toxic
- Activity [23]: Non-toxic
- Activity (HCT-116 [24]): Active
- Activity (HCT-116 [25]): 23.71%
- Activity (HCT-116 [26]): Active
- IC50 (HCT-116 [27]): 310 nM
- Activity (HCT-116 [28]): 24.55%
- inhibition (HCT-116 [29]): Active
- inhibition at 3 µM (HCT-116 [30]): 11.3%
- Activity (HCT-116 [31]): 0.22%
- IC50 (A549): 1000 nM
- selectivity ratio [32]: 54.1
- Activity (HCT-116 [33]): 33.23%
- Activity [34]: Non-toxic
- Activity (HCT-116 [35]): Active
- Activity (HCT-116 [36]): 0.071%
- Activity [37]: Non-toxic
- Activity (HCT-116 [38]): Active
